In ChEMBL document CHEMBL4184210, “Optimization of novel monobactams with activity against carbapenem-resistant Enterobacteriaceae - Identification of LYS228” (Bioorg Med Chem Lett, 2018):

Test: in vitro
Settings: dog, plasma
Description: Protein binding in dog plasma

Nc1nc(/C(=N/OC2(C(=O)O)CC2)C(=O)N[C@@H]2C(=O)N(S(=O)(=O)O)[C@@H]2CN2CCOC2=O)cs1 (stereo in doubt) [ANCREMONAM]
fraction unbound: 0.76
